Measurements published in patent US20250042897A1, “HETEROCYCLIC COMPOUNDS AS TRIGGERING RECEPTOR EXPRESSED ON MYELOID CELLS 2 AGONISTS AND METHODS OF USE” (Vigil Neuroscience, Inc., priority 2021, published 2025).

These compounds were tested against T1, human TREM2 (Homo sapiens, UniProt Q9NZC2) (assay: hTREM2 agonist potency by cellular Syk phosphorylation (AlphaLisa) in HEK293T-hTREM2 cells). Conditions: Table D-2; HEK293 cells expressing human TREM2 and DAP12; pSyk AlphaLisa; 45 minutes at room temperature.
T1 construct: expressed in transfected cells; host or cells: HEK293T
Type: cell-based
Method: In Vitro Measurement of Triggering Receptor Expressed on Myeloid Cells 2 Activity Using Cellular Phosphorylation of Spleen Tyrosine Kinase (“Syk”) Assays
Measurement of TREM2 agonist potency was done using a HEK cell line expressing human TREM2 and DAP12 (HEK293T-hTREM2 cells). Binding of small molecules to, and activation of, TREM2 increases the phosphorylation of Syk. The resultant levels of Syk phosphorylation are measured using a commercial AlphaLisa reagent kit. To perform the assay, HEK-hTREM2 cells were plated at 14,000 cells per well in a 384 well plate, in 25 μL of complete growth media and incubated at 37° C., 5% CO2 for 20-24 hours.
Prior to the assay, test compounds were diluted in the 384 well plates in assay buffer and allowed to equilibrate for 30 minutes. Growth media was removed from cell plates by inversion on blotting paper, and 25 μL of test articles in assay buffer was added to cells. Cells were incubated for 45 minutes at room temperature. After 45 minutes, assay buffer was removed and 10 μL of lysis buffer was added. Plates were shaken for 20 minutes at 350 RPM at room temperature. After complete lysis, AlphaLisa reagents were added to the lysate, and fluorescence intensity was measured using a Perkin Elmer Envision plate reader. Intensities were used to generate a standard curve, and % activation was calculated. Curve fitting was performed using Prism v9 software, log (agonist) vs response-variable slope (four parameters), and EC50s were calculated from the curve fit.
The results presented in Table D have been generated with the in vitro assay described above. This assay may be used to test any of the compounds described herein to assess and characterize a compound's ability to act as an agonist of TREM2.

T1 sequence (Q9NZC2 19-230): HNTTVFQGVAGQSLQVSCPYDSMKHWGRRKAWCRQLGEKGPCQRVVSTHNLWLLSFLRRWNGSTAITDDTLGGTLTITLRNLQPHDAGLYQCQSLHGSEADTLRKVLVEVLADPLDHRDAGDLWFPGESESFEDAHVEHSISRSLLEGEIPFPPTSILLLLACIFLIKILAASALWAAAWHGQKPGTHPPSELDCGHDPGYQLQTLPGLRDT
T1 sequence (O43914 22-113 partner): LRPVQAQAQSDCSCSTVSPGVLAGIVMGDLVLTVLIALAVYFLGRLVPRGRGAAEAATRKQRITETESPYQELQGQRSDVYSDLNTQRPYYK

SMILES	EC50 [µM]
Cc1nc2c(-c3ccc(Cl)cc3F)nc(N3C[C@@H](C)O[C@@H](c4cnn(C5CC5)c4)C3)nc2c(=O)n1C [I-152, 8-(4-chloro-2-fluoro-phenyl)-6-[(2S,6R)-2-(1-cyclopropylpyrazol-4-yl)-6-methyl-morpholin-4-yl]-2,3-dimethyl-pyrimido[5,4-d]pyrimidin-4-one]	≤ 0.05
Cn1ncc2c(-c3ccc(F)cc3F)nc(C3CCO[C@@H](c4cn(C5CC5)[n+](C)c4)C3)nc2c1=O (stereo partly drawn) [I-157, 2-[(2R)-2-(1-cyclopropyl-2-methyl-pyrazol-2-ium-4-yl)tetrahydropyran-4-yl]-4-(2,4-difluorophenyl)-7-methyl-pyrimido[4,5-d]pyridazin-8-one]	0.5 to 3
C[C@@H]1CN(c2nc(-c3ccc(F)cc3F)c3ncn(C)c(=O)c3n2)C[C@H](c2cnn(C3CC3)c2)O1 [I-163, 6-((2S,6R)-2-(1-cyclopropyl-1H-pyrazol-4-yl)-6-methylmorpholino)-8-(2,4-difluorophenyl)-3-methylpyrimido[5,4-d]pyrimidin-4 (3H)-one]	≤ 0.05
Cc1nc2c(-c3ccc(F)cc3F)nc([C@@H]3CCO[C@@H](c4cnn(C5CC5)c4)C3)nc2c(=O)n1C [I-168]	0.05 to 0.5
CC1Nc2c(nc([C@H]3CCO[C@@H](c4cnn(C5CC5)c4)C3)nc2-c2ccc(F)cc2F)C(=O)N1C (stereo partly drawn) [I-173]	0.5 to 3
COCn1cc([C@H]2CN(c3nc(-c4ccc(Cl)cc4F)c4cnn(C)c(=O)c4n3)C[C@@H](C)O2)cn1 [I-178]	≤ 0.05
Cc1cc([C@H]2CC(c3nc(-c4ccc(Cl)cc4F)c4nc(C)n(C)c(=O)c4n3)CCO2)ccn1 (stereo partly drawn) [I-188, 8-(4-chloro-2-fluoro-phenyl)-2,3-dimethyl-6-[(2R)-2-(2-methyl-4-pyridyl)tetrahydropyran-4-yl]pyrimido[5,4-d]pyrimidin-4-one]	≤ 0.05
CCn1ncc2c(-c3ccc(Cl)cc3F)nc(N3C[C@@H](C)O[C@@H](c4cnn(C5CC5)c4)C3)nc2c1=O [I-193, 4-(4-chloro-2-fluorophenyl)-2-((2S, 6R)-2-(1-cyclopropyl-1H-pyrazol-4-yl)-6-methylmorpholino)-7-ethyl-pyrimido[4,5-d]pyridazin-8 (7H)-one]	≤ 0.05
C[C@@H]1CN(c2nc(-c3ccc(C(F)(F)F)nc3)c3cnn(C)c(=O)c3n2)C[C@H](c2cnn(C3CC3)c2)O1 [I-198, 2-[(2S, 6R)-2-(1-cyclopropylpyrazol-4-yl)-6-methyl-morpholin-4-yl]-7-methyl-4-[6-(trifluoromethyl)-3-pyridyl]pyrimido[4,5-d]pyridazin-8-one]	≤ 0.05
Cc1ccc(-c2nc(N3C[C@@H](C)O[C@@H](c4cnn(C5CC5)c4)C3)nc3c(=O)n(C)ncc23)c(F)c1 [I-203, 2-((2S,6R)-2-(1-cyclopropyl-1H-pyrazol-4-yl)-6-methylmorpholino)-4-(2-fluoro-4-methylphenyl)-7-methylpyrimido[4,5-d]pyridazin-8 (7H)-one]	≤ 0.05
Cc1nc2c(C3CCCCC3)nc(N3C[C@@H](C)O[C@@H](c4cnn(C5CC5)c4)C3)nc2c(=O)n1C [I-208, 8-cyclohexyl-6-((2S,6R)-2-(1-cyclopropyl-1H-pyrazol-4-yl)-6-methylmorpholino)-2,3-dimethylpyrimido[5,4-d]pyrimidin-4 (3H)-one]	≤ 0.05
Cc1cc([C@H]2CN(c3nc(-c4ccc(F)cc4F)c4nc(C)n(C)c(=O)c4n3)C[C@@H](C)O2)ccn1 [I-213, 8-(2,4-difluorophenyl)-2,3-dimethyl-6-[(2R, 6S)-2-methyl-6-(2-methyl-4-pyridyl)morpholin-4-yl]pyrimido[5,4-d]pyrimidin-4-one]	≤ 0.05
C[C@@H]1CN(c2nc(-c3cc(F)c(F)cc3F)c3cnn(C)c(=O)c3n2)C[C@H](c2cnn(C3CC3)c2)O1 [I-218, 2-((2S,6R)-2-(1-cyclopropyl-1H-pyrazol-4-yl)-6-methylmorpholino)-7-methyl-4-(2,4,5-trifluorophenyl)pyrimido[4,5-d]pyridazin-8 (7H)-one]	≤ 0.05

Same assay, conditions: Table D; HEK293 cells expressing human TREM2 and DAP12; pSyk AlphaLisa; 45 minutes at room temperature

SMILES	EC50 [µM]
Cc1nc2cc(N3CCOC(c4cc[nH]c(=O)c4)C3)nc(-c3ccc(F)cc3F)c2c(=O)n1C (stereo not drawn) [compound 1, 5-(2,4-difluorophenyl)-2,3-dimethyl-7-(2-(2-oxo-1,2-dihydropyridin-4-yl)morpholino)pyrido[4,3-d]pyrimidin-4(3H)-one]	0.05 to 0.5
Cc1nc2cc(N3CCO[C@@H](c4cc[nH]c(=O)c4)C3)nc(-c3ccc(F)cc3F)c2c(=O)n1C [compound 2, (S)-5-(2,4-difluorophenyl)-2,3-dimethyl-7-(2-(2-oxo-1,2-dihydropyridin-4-yl)morpholino)pyrido[4,3-d]pyrimidin-4(3H)-one]	0.05 to 0.5
Cc1nc2cc(N3CCO[C@H](c4cc[nH]c(=O)c4)C3)nc(-c3ccc(F)cc3F)c2c(=O)n1C [compound 3, (R)-5-(2,4-difluorophenyl)-2,3-dimethyl-7-(2-(2-oxo-1,2-dihydropyridin-4-yl)morpholino)pyrido[4,3-d]pyrimidin-4(3H)-one]	3 to 100
Cc1nc2cc(N3CCOC(c4cc[nH]c(=O)c4)C3)nc(C34CC(C(F)(F)F)(C3)C4)c2c(=O)n1C (stereo not drawn) [compound 4, 2,3-dimethyl-7-(2-(2-oxo-1,2-dihydropyridin-4-yl)morpholino)-5-(3-(trifluoromethyl)bicyclo[1.1.1]pentan-1-yl)pyrido[4,3-d]pyrimidin-4(3H)-one]	≤ 0.05
Cc1nc2nc(-c3ccc(F)cc3F)cc(C3CCOC(c4cnn(C5CC5)c4)C3)c2c(=O)n1C (stereo not drawn) [compound 5, 5-(2-(1-cyclopropyl-1H-pyrazol-4-yl)tetrahydro-2H-pyran-4-yl)-7-(2,4-difluorophenyl)-2,3-dimethylpyrido[2,3-d]pyrimidin-4(3H)-one]	0.5 to 3
